Test results published in ChEMBL document CHEMBL5154930, “Design, Synthesis, and Biological Evaluations of DOT1L Peptide Mimetics Targeting the Protein-Protein Interactions between DOT1L and MLL-AF9/MLL-ENL” (J Med Chem, 2022).
Activity calls are given as the source filed them. Non-standard residues stand in square brackets, D forms with d. Residues, ends and D or L forms follow the SMILES beside them. *: point of attachment. X1 = C[C@H](N*)c1nc2cccc(-c3ccccc3)c2[nH]1; Ala(cPent) = N[C@@H](CC1CCCC1)C(=O)O; Pentanoyl(4-Me) = CC(C)CCC(=O)*; Dap(Me) = CNC[C@H](N)C(=O)O

How the values were obtained:
[1] = target: T1, Protein AF-9 (Homo sapiens) (UniProt P42568); assay: Binding affinity to AF9 in human MOLM-13 cells assessed as thermal stabilization of protein at 60 degree Celsius at 1 uM for 12 hrs by CETSA; type: cell-based
T1 sequence (whole entry): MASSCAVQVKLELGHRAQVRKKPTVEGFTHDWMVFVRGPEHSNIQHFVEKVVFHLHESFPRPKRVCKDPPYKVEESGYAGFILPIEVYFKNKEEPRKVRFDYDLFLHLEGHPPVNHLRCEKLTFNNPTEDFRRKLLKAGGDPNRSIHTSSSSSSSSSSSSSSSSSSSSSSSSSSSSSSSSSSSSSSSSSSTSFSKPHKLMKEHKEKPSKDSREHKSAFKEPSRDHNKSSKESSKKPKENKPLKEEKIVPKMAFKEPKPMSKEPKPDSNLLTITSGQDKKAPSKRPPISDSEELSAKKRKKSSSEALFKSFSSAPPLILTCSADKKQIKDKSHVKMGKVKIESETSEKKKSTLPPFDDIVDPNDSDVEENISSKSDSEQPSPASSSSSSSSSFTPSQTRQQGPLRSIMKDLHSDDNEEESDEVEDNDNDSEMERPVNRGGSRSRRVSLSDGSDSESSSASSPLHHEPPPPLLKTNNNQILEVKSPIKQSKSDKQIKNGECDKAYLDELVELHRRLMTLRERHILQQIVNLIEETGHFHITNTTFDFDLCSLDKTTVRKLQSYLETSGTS

MOLM-13 [2] = assay: Down regulation of CDK6 gene in human MOLM-13 cells by RNA-sequencing analysis; type: functional, cell-based
MOLM-13 [3] = assay: Down regulation of ARID1B gene in human MOLM-13 cells by RNA-sequencing analysis; type: functional, cell-based
MOLM-13 [4] = assay: Down regulation of HOXA9 gene in human MOLM-13 cells by RNA-sequencing analysis; type: functional, cell-based
MOLM-13 [5] = assay: Down regulation of HOXA5 gene in human MOLM-13 cells by RNA-sequencing analysis; type: functional, cell-based
MOLM-13 [6] = assay: Down regulation of TUBA1B gene in human MOLM-13 cells by RNA-sequencing analysis; type: functional, cell-based
MOLM-13 [7] = assay: Down regulation of ARID2 gene in human MOLM-13 cells by RNA-sequencing analysis; type: functional, cell-based
MOLM-13 [8] = assay: Down regulation of GBE1 gene in human MOLM-13 cells by RNA-sequencing analysis; type: functional, cell-based
MOLM-13 [9] = assay: Down regulation of JMJD1C gene in human MOLM-13 cells by RNA-sequencing analysis; type: functional, cell-based
MOLM-13 [10] = assay: Down regulation of DCUN1D1 gene in human MOLM-13 cells by RNA-sequencing analysis; type: functional, cell-based
MOLM-13 [11] = assay: Down regulation of CDK1 gene in human MOLM-13 cells by RNA-sequencing analysis; type: functional, cell-based
MOLM-13 [12] = assay: Down regulation of CDKN1B gene in human MOLM-13 cells by RNA-sequencing analysis; type: functional, cell-based
[13] = Apparent permeability across apical to basolateral side in human Caco-2 cells; type: ADME, cell-based
MOLM-13 [14] = assay: Induction of apoptosis in human MOLM-13 cells at 0.25 to 1 uM by Annexin V-FITC/PI staining based flow cytometry analysis; type: functional, cell-based; conditions: dose 0.25-1 µM, time 5-9 day, TDE = time-dependent effect
[15] = target: T1, Protein AF-9 (Homo sapiens); assay: Binding affinity to AF9 in human MOLM-13 cells assessed as thermal stabilization of protein at 55 degree Celsius for 12 hrs by CETSA; type: cell-based; conditions: dose <= 4.0 µM, DDE = dose-dependent effect
MOLM-13 [16] = assay: Down regulation of HPGD gene in human MOLM-13 cells by RNA-sequencing analysis; type: functional, cell-based
MOLM-13 [17] = assay: Inhibition of methylation of H3K79 in human MOLM-13 cells assessed as inhibition of methylation at HOXA1 gene cluster by chromatin immunoprecipitation assay; type: functional, cell-based
MOLM-13 [18] = assay: Inhibition of methylation of H3K79 in human MOLM-13 cells assessed as inhibition of methylation at HOXA3 gene cluster by chromatin immunoprecipitation assay; type: functional, cell-based
MOLM-13 [19] = assay: Inhibition of methylation of H3K79 in human MOLM-13 cells assessed as inhibition of methylation at […] gene cluster by chromatin immunoprecipitation assay; type: functional, cell-based
MOLM-13 [20] = assay: Inhibition of methylation of H3K79 in human MOLM-13 cells assessed as inhibition of methylation at HOXA10 gene cluster by chromatin immunoprecipitation assay; type: functional, cell-based
MOLM-13 [21] = assay: Inhibition of methylation of H3K79 in human MOLM-13 cells assessed as inhibition of methylation at HOXA-AS2 gene cluster by chromatin immunoprecipitation assay; type: functional, cell-based
MOLM-13 [22] = assay: Inhibition of methylation of H3K79 in human MOLM-13 cells assessed as inhibition of methylation at HOXA5 gene cluster by chromatin immunoprecipitation assay; type: functional, cell-based
MOLM-13 [23] = assay: Inhibition of methylation of H3K79 in human MOLM-13 cells assessed as inhibition of methylation at HOXA7 gene cluster by chromatin immunoprecipitation assay; type: functional, cell-based
MOLM-13 [24] = assay: Inhibition of methylation of H3K79 in human MOLM-13 cells assessed as inhibition of methylation at HOXA11 gene cluster by chromatin immunoprecipitation assay; type: functional, cell-based
MOLM-13 [25] = assay: Inhibition of methylation of H3K79 in human MOLM-13 cells assessed as inhibition of methylation at MEIS1-AS3 gene cluster by chromatin immunoprecipitation assay; type: functional, cell-based
MOLM-13 [26] = assay: Inhibition of methylation of H3K79 in human MOLM-13 cells assessed as inhibition of methylation at MEIS1 gene cluster by chromatin immunoprecipitation assay; type: functional, cell-based
MOLM-13 [27] = assay: Down regulation of MEF2C gene in human MOLM-13 cells by RNA-sequencing analysis; type: functional, cell-based
MOLM-13 [28] = assay: Down regulation of HOXA10 gene in human MOLM-13 cells by RNA-sequencing analysis; type: functional, cell-based
MOLM-13 [29] = assay: Down regulation of SSBP2 gene in human MOLM-13 cells by RNA-sequencing analysis; type: functional, cell-based
MOLM-13 [30] = assay: Down regulation of MCM2 gene in human MOLM-13 cells by RNA-sequencing analysis; type: functional, cell-based
MOLM-13 [31] = assay: Down regulation of HOXA11 gene in human MOLM-13 cells by RNA-sequencing analysis; type: functional, cell-based
MOLM-13 [32] = assay: Down regulation of AC011043.1 gene in human MOLM-13 cells by RNA-sequencing analysis; type: functional, cell-based
MOLM-13 [33] = assay: Down regulation of MEIS1 gene in human MOLM-13 cells by RNA-sequencing analysis; type: functional, cell-based
MOLM-13 [34] = assay: cells; conditions: Homo sapiens, MOLM-13, 192 h
Description: Anticancer activity against human MOLM-13 cells harbouring MLL-AF9 assessed as inhibition of cell growth treated for 8 days measured by CCK-8 kit method

KOPN-8 = assay: cells; conditions: Homo sapiens, KOPN-8, 192 h
Description: Anticancer activity against human KOPN-8 cells harbouring MLL-ENL assessed as inhibition of cell growth treated for 8 days measured by CCK-8 kit method

MOLM-13 [35] = assay: cells; conditions: Homo sapiens, MOLM-13, 96 h
Description: Anticancer activity against human MOLM-13 cells harbouring MLL-AF9 assessed as inhibition of cell growth treated for 4 days measured by CCK-8 kit method

MOLM-13 [36] = assay: cells; conditions: Homo sapiens, MOLM-13, 144 h
Description: Anticancer activity against human MOLM-13 cells harbouring MLL-AF9 assessed as inhibition of cell growth treated for 6 days measured by CCK-8 kit method

MOLM-13 [37] = assay: cells; conditions: Homo sapiens, MOLM-13, 168 h
Description: Anticancer activity against human MOLM-13 cells harbouring MLL-AF9 assessed as inhibition of cell growth treated for 7 days measured by CCK-8 kit method

MOLM-13 [38] = assay: cells; conditions: Homo sapiens, MOLM-13, 216 h
Description: Anticancer activity against human MOLM-13 cells harbouring MLL-AF9 assessed as inhibition of cell growth treated for 9 days measured by CCK-8 kit method

CNC[C@H](NC(=O)[C@@H](NC(=O)[C@@H]1CCCN1C(=O)CCC(C)C)C(C)C)C(=O)N[C@@H](CC1CCCC1)C(=O)N[C@@H](C)c1nc2cccc(-c3ccccc3)c2[nH]1 ({Pentanoyl(4-Me)}-PV[Dap(Me)][Ala(cPent)]-X1)
382 nM: IC50 (MOLM-13 [36])
active: Activity [1] | Activity (MOLM-13 [2]) | Activity (MOLM-13 [3]) | Activity (MOLM-13 [4]) | Activity (MOLM-13 [5]) | Activity (MOLM-13 [6]) | Activity (MOLM-13 [7]) | Activity (MOLM-13 [8]) | Activity (MOLM-13 [9]) | Activity (MOLM-13 [10]) | Activity (MOLM-13 [11]) | Activity (MOLM-13 [12]) | Activity (MOLM-13 [14]) Tde | Activity [15] Dde | Activity (MOLM-13 [16]) | inhibition (MOLM-13 [17]) | inhibition (MOLM-13 [18]) | inhibition (MOLM-13 [19]) | inhibition (MOLM-13 [20]) | inhibition (MOLM-13 [21]) | inhibition (MOLM-13 [22]) | inhibition (MOLM-13 [23]) | inhibition (MOLM-13 [24]) | inhibition (MOLM-13 [25]) | inhibition (MOLM-13 [26]) | Activity (MOLM-13 [27]) | Activity (MOLM-13 [28]) | Activity (MOLM-13 [29]) | Activity (MOLM-13 [30]) | Activity (MOLM-13 [31]) | Activity (MOLM-13 [32]) | Activity (MOLM-13 [33])
70 nM: IC50 (MOLM-13 [34])
100 nM: IC50 (KOPN-8)
1.97 ×10⁻⁶ cm/s: Papp A→B [13]
44 nM: IC50 (MOLM-13 [38])
167 nM: IC50 (MOLM-13 [37])
972 nM: IC50 (MOLM-13 [35])
